The values below come from patent US8951938B2, “Combinatorial rosamine library to detect cell-state switching” (New York University, priority 2007, dated 2015).

The test system of experiment [1] is RNA. Briefly: Analyte screening of rosamine library, fluorescence response. The protocol:
(§1) The rosamine derivative compounds were screened toward 47 different analytes that include proteins, polysaccharides, nucleic acids, and metal ions. The stock solution of each dye (50 μL) in HEPES (20 mM, pH=7.4) or PBS (20 mM, pH=7.4) was prepared, and diluted with the each analyte (50 μL, 1.0 mg/mL or 200 μM) in the same buffer solution. The final dye concentration varied from 0.5 μM to 10 μM. The fluorescence intensity fold changes of each dye in the presence of analytes were calculated by comparing the fluorescence intensity at the maximum emission wavelength with/without the analyte.

Experiment [2] relates to DNA. The experiment is described as above. On the procedure: as §1

Each structure is given as a SMILES string. “Also recorded” adds a separate entry of the source.

For `CC1=CC(C)(C)N(C)c2ccc3c(=O)c4ccc(N)cc4n(C)c3c21` [J], in experiment [1], the “fluorescence response to RNA among 47 analytes” value was “selective response; also recorded: selective increase”. As to `CCN(CCCN(C)C)c1ccc2c(=O)c3ccc(N)cc3oc2c1` [L, 3-Amino-6-[(3-dimethylamino-propyl)-ethyl-amino]-xanthen-9-one], the “fluorescence response to DNA among 47 analytes” value in experiment [2] is “selective response; also recorded: selective increase”.
